From patent publication US9604947B2, “Substituted 5-imino-1,2,4-thiadiazoles that can be used to treat neurodegenerative diseases” (CONSEJO SUPERIOR DE INVESTIGACIONES CIENTIFICAS (CSIC), priority 2009, dated 2017)
Where a name gives a salt, the structure may show the parent alone. Read-outs that look alike come from different tables or passages of the source.

How the values were obtained:
PDE7A1 = molecular target: T1, PDE7A1 (Homo sapiens, UniProt Q13946); assay: Determination of PDE7 inhibition (SPA, [3H]cAMP); assay type: biochemical; conditions: for IC50: read-out: IC50 (PDE7A)
T1 construct: purchased Calbiochem 524751
Experimental: PDE-7 inhibition was performed with a commercial kit for the determination of phosphodiesterase activity (GE Healthcare Life Sciences, cat#TRKQ7090).
The compounds to be evaluated were incubated (in concentrations between 0.1 nM and 100 μM) in presence of 0.02 U/well of PDE7A1 (Calbiochem cat#524751) and 0.05 μCi of [^3H] cAMP, for 20 min at 30° C. in the assay buffer of kit (total volume=100 μl).
After this time, 50 μl of a suspension of 20 mg/ml microspheres of SPA of Ytrium silicate were added and was maintained under stirring at room temperature for 60 min. Finally, the plate was settled for 20 min and radioactivity was detected in a Microbeta Trilux reader.
In every assay there were included two points without PDE7A1 (blank) and two points with PDE7A1 without inhibitors (control).
Data Analysis: All the compounds were evaluated firstly at the concentration of 10 μM and the percentage of PDE7A1 inhibition was calculated, according to the following formula (cpm=counts per minute): % Inhibition=((cpm control−cpm sample)×100)/(cpm control−cpm blank assay).
For those compounds with % inhibition values above 45% it was calculated its inhibitory potency (IC50) building the dose-response curve.
The data were adjusted with the software Prism v 2.1 (GraphPad Software) using the non lineal fitting.

in vitro = assay: in vitro
Experimental: Ten commercial reference drugs, phosphate buffer saline solution at pH 7.4 (PBS), DMSO and dodecane were purchased from Sigma, Acros organics, Aldrich and Fluka. […] Filter PDVF membrane units (diameter 30 mm, pore size 0.45 μm) from Symta were used to filtered the samples. A 96-well plate UV reader (Thermoscientific, Multiskan spectrum) was used for the UV measurements. […] These solutions were filtered. The acceptor 96-well microplate was filled with 180 μL of PBS:DMSO (95:5). The donor 96-well plate was coated with 4 μL of porcine brain lipid in dodecane (20 mg mL^−1) and after 5 minutes, 180 μL of each compound solution was added. 1-2 mg of every compound to be determined their ability to pass the BBB were dissolved in 250 μL of DMSO and 4750 μL of PBS pH 7.4 buffer, filtered and then added to the donor 96-well plate. Then the donor plate was carefully put on the acceptor plate to form a “sandwich”, which was left undisturbed for 4 h at 25° C.
During this time the compounds diffused from the donor plate through the brain lipid membrane into the acceptor plate. After incubation, the donor plate was removed. The concentration of compounds and commercial drugs in the acceptor and the donor wells was determined by UV plate reader. Every sample was analyzed from three to five wavelengths, in 3 wells and in at least three independent runs. […] 11 quality control compounds (previously mentioned) of known BBB permeability were included in each experiment to validate the analysis set.

[1] = 1,2,4-thiadiazoles-5-imino substituted as hydrobromides

T1 sequence (Q13946 whole entry): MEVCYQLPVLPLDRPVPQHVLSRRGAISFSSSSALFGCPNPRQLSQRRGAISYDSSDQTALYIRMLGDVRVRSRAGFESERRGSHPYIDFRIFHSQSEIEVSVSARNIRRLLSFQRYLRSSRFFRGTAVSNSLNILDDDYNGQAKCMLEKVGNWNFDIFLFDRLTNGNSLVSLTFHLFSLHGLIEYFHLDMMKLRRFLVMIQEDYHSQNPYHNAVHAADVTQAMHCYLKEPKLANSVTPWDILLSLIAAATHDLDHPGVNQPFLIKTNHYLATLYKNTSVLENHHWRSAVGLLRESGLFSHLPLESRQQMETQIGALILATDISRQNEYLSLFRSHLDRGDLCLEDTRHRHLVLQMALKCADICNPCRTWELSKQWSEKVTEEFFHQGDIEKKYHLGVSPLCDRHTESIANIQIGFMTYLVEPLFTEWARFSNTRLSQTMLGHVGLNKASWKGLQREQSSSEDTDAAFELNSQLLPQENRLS

IC50 (PDE7A1; [1]) [nM]	Prediction (predictive penetration in the CNS) (in vitro; PAMPA)	Papp at 4 h (in vitro; PAMPA, pH 7.4) [×10⁻⁶ cm/s]	Structure (SMILES)	further results
1130	CNS+	6.2 ± 0.4	Br.CCOC(=O)CN=c1nc(-c2ccccc2)n(-c2ccccc2)s1 [VP-1.16, 5-Ethoxycarbonylmethylimino-2,3-diphenyl-2,5-dihydro-1,2,4-thiadiazole hydrobromide]	
		9.7 ± 1.5	CN(C)CCCN1c2ccccc2Sc2ccccc21 [Promazine, reference compound]	
			CC(C)NCC(O)COc1ccc(CC(N)=O)cc1 (stereo not shown) [Atenolol, reference compound]	Pe (10^−6 cm s^−1) (in vitro; pig, PAMPA, 4 h, pH 7.4): 0.8 ± 1.1 10^−6 cm s^−1
	CNS+	15 ± 2	OCCN=c1nc(-c2ccccc2)n(-c2ccccc2)s1 [VP-2.3, 5-(2-Hydroxyethylimino)-2,3-diphenyl-2,5-dihidro-1,2,4-thiadiazole hydrochloride]	IC50 (PDE7A1; 1,2,4-thiadiazoles-5-imino substituted as hydrochlorides): 1970 nM
			CN1C(C(=O)Nc2ccccn2)=C(O)c2ccccc2S1(=O)=O [Piroxicam, reference compound]	Pe (10^−6 cm s^−1) (in vitro; PBS:DMSO (95:5) as solvent, 4 h at 25° C., mean ± SD of at least 3 independent experiments): 2.2 ± 0.9 10^−6 cm s^−1
			CCn1cc(C(=O)O)c(=O)c2cc(F)c(N3CCNCC3)nc21 [Enoxacin, reference compound]	Pe (10^−6 cm s^−1) (in vitro; pig, PAMPA, 4 h, pH 7.4): 0.9 ± 0.5 10^−6 cm s^−1
890	CNS+/CNS−	3.8 ± 0.2	Br.CCOC(=O)CN=c1nc(-c2ccc(OC)cc2)n(-c2ccccc2)s1 [VP-1.65, 5-Ethoxycarbonylmethylimino-3-(4-methoxyphenyl)-2-phenyl-2,5-dihydro-1,2,4-thiadiazole hydrobromide]	
860	CNS+	4.4 ± 0.6	Br.Br.COc1ccc(-c2nc(=NCc3cccnc3)sn2-c2ccccc2)cc1 [VP-1.43, 3-(4-Methoxyphenyl)-2-phenyl-5-(3-pyridylmethylimino)-2,5-dihydro-1,2,4-thiadiazole dihydrobromide]	
	CNS+	5.3 ± 0.9	Br.Br.Cc1nc(=NCc2cccnc2)sn1-c1ccccc1 [VP-2.63, 3-Methyl-2-phenyl-5-(3-pyridylmethylimino)-2,5-dihydro-1,2,4-thiadiazole dihydrobromide]	inhibition at 10 µM (PDE7A1; read-out: % inhibition of PDE7A at 10 μM, hydrobromides, at 10 μM): 54%
380	CNS+	10.7 ± 0.3	Br.Br.c1ccc(-c2nc(=NCc3cccnc3)sn2-c2ccccc2)cc1 [VP-1.14, 2,3-Diphenyl-5-(3-pyridinylmethylimino)-2,5-dihydro-1,2,4-thiadiazole dihydrobromide]	
1110	CNS+	15.4 ± 2	Br.OCCN=c1nc(-c2ccccc2)n(-c2ccccc2)s1 [VP-1.15, 5-(2-Hydroxyethylimino)-2,3-diphenyl-2,5-dihydro-1,2,4-thiadiazole hydrobromide]	
1180	CNS+	13.7 ± 1	Br.COc1ccc(-n2sc(=NCCO)nc2-c2ccccc2)cc1 [VP-1.61, 5-(2-Hydroxyethylimino)-2-(4-methoxyphenyl)-3-phenyl-2,5-dihydro-1,2,4-thiadiazole hydrobromide]	
850	CNS+	6.2 ± 0.4	Br.Br.COc1ccc(-n2sc(=NCc3cccnc3)nc2-c2ccccc2)cc1 [VP-1.60, 2-(4-Methoxyphenyl)-3-phenyl-5-(3-pyridinylmethylimino)-2,5-dihydro-1,2,4-thiadiazole dihydrobromide]	
780	CNS+/CNS−	4 ± 0.8	Br.CCOC(=O)CN=c1nc(-c2ccccc2)n(-c2ccc(OC)cc2)s1 [VP-1.62, 5-Ethoxycarbonylmethylimino-2-(4-methoxyphenyl)-3-phenyl-2,5-dihydro-1,2,4-thiadiazole hydrobromide]	
1500	CNS+	13.7 ± 0.8	Br.COc1ccc(-c2nc(=NCCO)sn2-c2ccccc2)cc1 [VP-1.40, 5-(2-Hydroxyethylimino)-3-(4-methoxyphenyl)-2-phenyl-2,5-dihydro-1,2,4-thiadiazole hydrobromide]	

Structure (SMILES)	IC50 (PDE7A1; [1]) [nM]	Prediction (predictive penetration in the CNS) (in vitro; PAMPA)	Papp at 4 h (in vitro; PAMPA, pH 7.4) [×10⁻⁶ cm/s]	further results
Br.OCCN=c1nc(-c2cccc3ccccc23)n(-c2ccccc2)s1 [VP-2.33, 5-(2-Hydroxyethylimino)-3-(1-naphthyl)-2-phenyl-2,5-dihydro-1,2,4-thiadiazole hydrobromide]	1240		10.2 ± 0.6	Prediction (predictive penetration in the CNS) (in vitro; PAMPA-BBB): CNS+
